Source: ChEMBL document CHEMBL1126819, “Amino acid bioisosteres: design of 2-quinolone derivatives as glycine-site N-methyl-D-aspartate receptor antagonists” (Bioorg Med Chem Lett, 1993)

Tests used:
Rattus norvegicus = organism: Rattus norvegicus; test: Tested for ability to inhibit NMDA-induced depolarizations in rat cortical slices; format: functional
Glutamate NMDA receptor = format: cell membranes, Rattus norvegicus, Membrane
Description: Displacement of [3H]L-689,560 from NMDA receptor glycine site of rat brain membranes

[1] = Dissociation constant pKa was determined; format: physicochemical

| Structure (SMILES) | Kb (Rattus norvegicus) | IC50 (Glutamate NMDA receptor) | pKa [1] |
| --- | --- | --- | --- |
| O=C1Nc2cc(Cl)ccc2CC1[N+](=O)[O-] (stereo not drawn) | 6700 nM | 410 nM |  |
| COC(=O)c1c(O)c2ccc(Cl)cc2[nH]c1=O |  | 6500 nM |  |
| Oc1nc2cc(Cl)cc(Cl)c2c(O)c1-c1ccccc1 |  | 97 nM |  |
| Oc1nc2cc(Cl)ccc2c(O)c1C1CCCCC1 |  | ~100000 nM |  |
| O=C(O)c1cc(O)c2c(I)cc(Cl)cc2n1 | 410 nM | 14 nM |  |
| C[C@@H]1CN(O)C(=O)[C@@H]1N |  | 2700 nM |  |
| O=C(Nc1ccccc1)N[C@H]1C[C@H](C(=O)O)Nc2cc(Cl)cc(Cl)c21 | 110 nM | 4 nM | ~4 |
| O=c1[nH]c2cc(Cl)ccc2c(O)c1-c1ccccc1 | 880 nM | 170 nM | 5.4 |
| CCc1cc(Cl)cc2nc(O)c(-c3ccccc3)c(O)c12 |  | 6.9 nM |  |
| O=[N+]([O-])c1cc([N+](=O)[O-])c2nc(O)c(O)nc2c1 | 1200 nM | 170 nM | 6.5 |
| O=c1cc(O)c2ccc(Cl)cc2[nH]1 |  | > 300000 nM |  |
| O=C(c1ccccc1)c1c(O)nc2cc(Cl)ccc2c1O |  | 3200 nM |  |
| O=C(O)c1cc(O)c2c(Cl)cc(Cl)cc2n1 | 1900 nM | 64 nM |  |
| O=C(O)c1cc(O)c2ccc(Cl)cc2n1 [7-CHLOROKYNURENIC ACID] | 7000 nM |  |  |
